According to patent publication US20260166021A1, “POLYMORPHIC FORMS OF A SOLUBLE EPOXIDE HYDROLASE INHIBITOR AND FORMULATIONS THEREOF” (EicOsis, LLC, priority 2022, published 2026):

Key:
[1] = Equilibrium-solubility screening in solvents and excipients; format: physicochemical; details: organic solvent or mixture, thermodynamic from solid; PEG300, PEG400, propylene glycol, vitamin E TPGS, Gelucire 44/14, castor oil hydrogenated, Capmul MCM NF, Capmul MCM EP, Kolliphor HS-15, Kolliphor EL, Labrasol, Transcutol HP; approx. 24 hours
Procedure: For these analyses, Form D or Form C was mixed with 0.5 or 1.0 mL of solvents and equilibrated for approximately 24 hours. The mixture was filtered through 0.45 μm centrifuge filters.
As expected, the compound was not easily ionized at physiologically relevant pH. […] In addition, these excipients included surfactants, co-solvents, and lipids which are amenable for use in self-emulsifying drug delivery systems (SEDDS). The XRD pattern of the starting material was maintained for each sample after equilibrium.

[2] = Supersaturation monitoring in PEG 300; format: physicochemical

**Q.** Which solubility thermodynamic [1] does the source give for `CC[C@H](C)C(=O)N1CCC(NC(=O)Nc2ccc(OC(F)(F)F)c(F)c2)CC1` [Formula (I), (S)-1-(3-fluoro-4-(trifluoromethoxy)phenyl)-3-(1-(2-methylbutanoyl)piperidin-4-yl)urea] here?
**A.** > 20 mg/mL

**Q.** What about the “time without visual precipitation in PEG300” value ([2]; 100 mg/mL in PEG300, room temperature) of the same compound?
**A.** 9 days

**Q.** And the “precipitation from PEG300” value ([2]; 200 mg/mL in PEG300)?
**A.** readily precipitated overnight
